In US20150157645A1, “COMBINATION OF A 17-ALPHA-HYDROXYLASE (C17,20-LYASE) INHIBITOR AND A SPECIFIC PI-3K INHIBITOR FOR TREATING A TUMOR DISEASE” (priority 2012, published 2015):
Marks after values point to notes of the source that are not given here.

Assays:
[1] = tested on: human prostate VCap xenograft; assay: human prostate VCap xenograft model in SCID mice (studies MIS-32S-12 and MIS-59FVA-12); conditions: for ΔTumor volume (mm^3): mean ± SEM
Procedure: (§1) Recently, in vivo anti-tumor efficacy of 1-(2-Chloro-pyridin-4-yl)-3-(4-methyl-pyridin-3-yl)-imidazolidin-2-one was evaluated alone and in combination with COMPOUND C or its hydrochloride salt (a pan PI3K inhibitor) in two human prostate cancer xenograft models, VCap and LnCap, established in SCID mice. The VCap tumors which, express PTEN and over-express wild type AR, were established in chemically-castrated mice. The LnCap tumors which, express mutant AR (T877A) and are PTEN null, were initially established in non-castrated animals which were chemically-castrated at the time of treatment.

[2] = tested on: human prostate LNCap xenograft; assay: human prostate LnCap xenograft model in SCID mice (study MIS-43P-12); assay type: in vivo; design: Average / Delta avg: unit not given here; conditions: D 300 mg/kg bid, C 30 mg/kg qd; for anti-tumor response (in words): LnCap, single agent, AA 100 mg/kg bid; for T/C [%] / Delta avg / Average: po, C/D 30/300 qd/bid; for Delta avg: change of average tumor volume
Procedure: as §1

[3] = MIS-32S-12, Day 14, p.o., D 300 mg/kg bid, AA 100 mg/kg bid, C 30 mg/kg qd, C + D 30 qd + 300 bid
[4] = MIS-32S-12, Day 35, p.o., D 300 mg/kg bid, AA 100 mg/kg bid, C 30 mg/kg qd, C + D 30 qd + 300 bid
[5] = MIS-32S-12, Day 35, p.o., D 300 mg/kg bid, AA 100 mg/kg bid, C 30 mg/kg qd, C + D 30 mg/kg qd + 300 mg/kg bid
[6] = MIS-59FVA-12, Day 14, p.o., D 300 mg/kg bid, C 30 mg/kg qd, C + D 30 qd + 300 bid (so in the source)
[7] = MIS-59FVA-12, Day 14, p.o., D 300 mg/kg bid, C 30 mg/kg qd (so in the source)
[8] = MIS-59FVA-12, Day 23, p.o., D 300 mg/kg bid, C 30 mg/kg qd, C + D 30 qd + 300 bid (so in the source)
[9] = MIS-59FVA-12, Day 23, p.o., D 300 mg/kg bid, C 30 mg/kg qd (so in the source)
[10] = MIS-43P-12, day 0 of treatment, E 100 mg/kg bid
[11] = MIS-43P-12, day 4 of treatment, E 100 mg/kg bid
[12] = MIS-43P-12, day 11 of treatment
[13] = MIS-43P-12, day 14 of treatment, E 100 mg/kg bid
[14] = MIS-43P-12, day 18 of treatment, E 100 mg/kg bid
[15] = MIS-43P-12, day 0, E 100 mg/kg bid
[16] = MIS-43P-12, day 4, E 100 mg/kg bid
[17] = MIS-43P-12, day 14, E 100 mg/kg bid
[18] = MIS-43P-12, day 18, E 100 mg/kg bid
[19] = tumor volume (FIG. 3a), MIS-43P-12, day 0 of treatment, E 100 mg/kg bid
[20] = tumor volume, MIS-43P-12, day 4 of treatment, E 100 mg/kg bid
[21] = tumor volume, MIS-43P-12, day 7 of treatment
[22] = tumor volume, MIS-43P-12, day 11 of treatment
[23] = tumor volume, MIS-43P-12, day 14 of treatment, E 100 mg/kg bid
[24] = tumor volume, MIS-43P-12, day 18 of treatment, E 100 mg/kg bid

Compound | ΔTumor volume (mm^3) [1, 3] [mm^3] | ΔTumor volume (mm^3) [1, 4] [mm^3] | T/C [%] [1, 5] | ΔTumor volume (mm^3) [1, 6] [mm^3] | T/C [%] [1, 7] | ΔTumor volume (mm^3) [1, 8] [mm^3] | T/C [%] [1, 9] | anti-tumor response (in words) [2] | T/C [%] [2, 10] [%] | T/C [%] [2, 11] [%] | T/C [%] ([2]; MIS-43P-12, day 7 of treatment) | T/C [%] [2, 12] [%] | T/C [%] [2, 13] [%] | T/C [%] [2, 14] [%] | Delta avg [2, 15] | Delta avg [2, 16] | Delta avg ([2]; MIS-43P-12, day 7) | Delta avg ([2]; MIS-43P-12, day 11) | Delta avg [2, 17] | Delta avg [2, 18] | also measured
Nc1cc(C(F)(F)F)c(-c2cc(N3CCOCC3)nc(N3CCOCC3)n2)cn1 [Compound C, 5-(2,6-di-morpholin-4-yl-pyrimidin-4-yl)-4-trifluoromethyl-pyridin-2-ylamine] | −18.9 ± 6.3 | 23.3 ± 21.6 | 5.0*^;$ % | 3.6 ± 7.6 | 4.0%* | 25.6 ± 16.4 | 12.4* % | marginal tumor growth delay | 100 | 56 | 71 | 86 | 75 | 79 | 0 | 29 | 88 | 198 | 261 | 375 | Regression (printed in T/C column) ([1]; MIS-32S-12, Day 14, p.o., C 30 mg/kg qd, C + D 30 mg/kg qd + 300 mg/kg bid): 13.8%*; Survival (alive/total) [1, 3]: 7/7; Survival (alive/total) [1, 4]: 7/7; Survival (alive/total) [1, 6]: 7/7; Survival (alive/total) [1, 8]: 7/7; anti-tumor response (in words) ([1]; VCap, single agent 20 mg/kg qd): tumor growth delay; anti-tumor response (in words) ([1]; VCap, single agent 30 mg/kg qd): tumor regression; Average [2, 19]: 170; Average [2, 20]: 199; Average [2, 21]: 258; Average [2, 22]: 369; Average [2, 23]: 432; Average [2, 24]: 546
Cc1ccncc1N1CCN(c2ccnc(Cl)c2)C1=O [Compound D, 1-(2-Chloro-pyridin-4-yl)-3-(4-methyl-pyridin-3-yl)-imidazolidin-2-one] | 35.6 ± 10.5 | 303.9 ± 57.3 | 65.2*^;$;# % | 36.3 ± 17.0 | 40.3* % | 79.8 ± 20.1 | 38.7*^;# % | marginal tumor growth delay | 100 | 82 | 60 | 85 | 57 | 67 | 0 | 43 | 73 | 197 | 200 | 317 | T/C [%] ([1]; MIS-32S-12, Day 14, p.o., D 300 mg/kg bid, AA 100 mg/kg bid, C 30 mg/kg qd, C + D 30 mg/kg qd + 300 mg/kg bid): 27.2*^$ %; anti-tumor response (in words) ([1]; two separate VCap experiments, single agent, D 300 mg/kg bid, AA 100 mg/kg bid): either slight tumor regression or tumor stasis initially, followed by tumor growth delay; Average [2, 19]: 174; Average [2, 20]: 217; Average [2, 21]: 248; Average [2, 22]: 372; Average [2, 23]: 375; Average [2, 24]: 491
